Patent US20240148821A1, “PHARMACEUTICAL USE OF CYCLIC PEPTIDE COMPOUND” (CHUGAI SEIYAKU KABUSHIKI KAISHA, priority 2021, published 2024)
pIC50: −log10 of the molar value. Numbered stars: 1 amine (or outer) side, 2 acyl side, 3 side chain; on linkers, the order of the positions; unused ones are H or OH. Bridge positions count the residues as written; N and C are the ends. Square brackets hold non-standard residues; d marks the D form. Peptide text beside a SMILES is read from it. * marks the point of attachment. hPhe(3-Cl-4-CF3) = N[C@@H](CCc1ccc(C(F)(F)F)c(Cl)c1)C(=O)O; NMedβ3hAla = C[C@H](CC(=O)[*:2])N(C)[*:1]; NMe3Pal = CN[C@@H](Cc1cccnc1)C(=O)O; NMeCha = CN[C@@H](CC1CCCCC1)C(=O)O; NMeChg = CN[C@H](C(=O)O)C1CCCCC1; NMeF = CN[C@@H](Cc1ccccc1)C(=O)O; NMeD = CN[C@@H](CC(=O)O)C(=O)O; NMeL = CN[C@@H](CC(C)C)C(=O)O; NMeNle = CCCC[C@H](NC)C(=O)O; NMeV = CN[C@H](C(=O)O)C(C)C; NMeA = CN[C@@H](C)C(=O)O; Piperidide = C1CCN(*)CC1; Pyrrolidide = C1CCN(*)C1; dNMeA = CN[C@H](C)C(=O)O; Ac5c = NC1(C(=O)O)CCCC1; Aze = O=C(O)[C@@H]1CCN1; Sar = CNCC(=O)O

System: Human pancreatic cancer cell line AsPC-1 (G12D mutation Kras)
Assay: AsPC-1 cell growth inhibition (AsPC-1 CGI)
Assay type: cell-based
Details: read-out: AsPC-1 cell growth inhibition, 50% growth inhibitory concentration (IC50 value); 96 hours, CellTiter-Glo, values classified in ranges
Procedure: Test compounds were serially dilated with dimethyl sulfoxide, and 200 nL was then dispensed to a U-bottom 96-well plate using Labcyte Echo. […] The cell suspension was dispensed to a. plate containing a test compound at 100 μL per well and incubated at 37° C. in a 5% carbon dioxide gas incubator. 96 hours later, 80 μL of CellTiter-Glo (Promega) was added to each well and fluorescence was measured.

SMILES	pIC50
CC(C)C[C@H]1C(=O)N[C@@H](CO)C(=O)N(C)CC(=O)N(C)CC(=O)N(C)[C@@H](CC2CCCCC2)C(=O)N(C)CC(=O)N[C@@H](CCc2ccc(C(F)(F)F)c(Cl)c2)C(=O)N2CCC[C@H]2C(=O)NC2(CCCC2)C(=O)N(C)[C@@H](C2CCCCC2)C(=O)N(C)[C@H](C(=O)N2CCCCC2)CC(=O)N1C [Compound 1799] ([NMeL]S[Sar][Sar][NMeCha][Sar][hPhe(3-Cl-4-CF3)]P[Ac5c][NMeChg][NMeD]-Piperidide; lactam N-11)	< 6.30
CC(C)C[C@H]1C(=O)N[C@@H](C)C(=O)N(C)CC(=O)N(C)CC(=O)N(C)[C@@H](CC2CCCCC2)C(=O)N(C)CC(=O)N[C@@H](CCc2ccc(C(F)(F)F)c(Cl)c2)C(=O)N2CCC[C@H]2C(=O)NC2(CCCC2)C(=O)N(C)[C@@H](C2CCCCC2)C(=O)N(C)[C@H](C(=O)N2CCCCC2)CC(=O)N1C [Compound 1802] ([NMeL]A[Sar][Sar][NMeCha][Sar][hPhe(3-Cl-4-CF3)]P[Ac5c][NMeChg][NMeD]-Piperidide; lactam N-11)	< 6.30
CC[C@H](C)[C@@H]1NC(=O)[C@H](C)N(C)C(=O)C[C@@H](C(=O)N2CCCCC2)N(C)C(=O)[C@H](C(C)C)N(C)C(=O)C2(CCCC2)NC(=O)[C@@H]2CCCN2C(=O)[C@H](CCc2ccc(C(F)(F)F)c(Cl)c2)NC(=O)[C@@H](C)N(C)C(=O)[C@H](Cc2ccccc2)N(C)C(=O)[C@@H]2CCCN2C(=O)CN(C)C1=O [Compound 1806] ([NMeA]I[Sar]P[NMeF][dNMeA][hPhe(3-Cl-4-CF3)]P[Ac5c][NMeV][NMeD]-Piperidide; lactam N-11)	< 6.30
CC[C@H](C)[C@@H]1NC(=O)[C@H](C)N(C)C(=O)C[C@@H](C)N(C)C(=O)[C@H](C2CCCCC2)N(C)C(=O)C2(CCCC2)NC(=O)[C@@H]2CCCN2C(=O)[C@H](CCc2ccc(C(F)(F)F)c(Cl)c2)NC(=O)CN(C)C(=O)[C@H](CC2CCCCC2)N(C)C(=O)CN(C)C(=O)CN(C)C1=O [Compound 1808] (cyclo([Ac5c][NMeChg][NMedβ3hAla][NMeA]I[Sar][Sar][NMeCha][Sar][hPhe(3-Cl-4-CF3)]P))	< 6.30
CC[C@H](C)[C@@H]1NC(=O)[C@H](C)N(C)C(=O)C[C@@H](C(=O)N2CCCC2)N(C)C(=O)[C@H](C2CCCCC2)N(C)C(=O)C2(CCCC2)NC(=O)[C@H](Cc2cccnc2)N(C)C(=O)[C@H](CCc2ccc(C(F)(F)F)c(Cl)c2)NC(=O)CN(C)C(=O)[C@H](CC2CCCCC2)N(C)C(=O)[C@@H]2CCN2C(=O)CN(C)C1=O [Compound 1810] ([NMeA]I[Sar][Aze][NMeCha][Sar][hPhe(3-Cl-4-CF3)][NMe3Pal][Ac5c][NMeChg][NMeD]-Pyrrolidide; lactam N-11)	< 6.30
CC[C@H](C)[C@@H]1NC(=O)[C@H](CC(C)C)N(C)C(=O)C[C@@H](C)N(C)C(=O)[C@H](C2CCCCC2)N(C)C(=O)C2(CCCC2)NC(=O)[C@@H]2CCCN2C(=O)[C@H](CCc2ccc(C(F)(F)F)c(Cl)c2)NC(=O)CN(C)C(=O)[C@H](CC2CCCCC2)N(C)C(=O)[C@@H]2CCN2C(=O)[C@H](C)N(C)C1=O [Compound 1813] (cyclo([Ac5c][NMeChg][NMedβ3hAla][NMeL]I[NMeA][Aze][NMeCha][Sar][hPhe(3-Cl-4-CF3)]P))	< 6.30
CCCC[C@H]1C(=O)N(C)[C@H](C(=O)N2CCCCC2)CC(=O)N(C)[C@@H](CC(C)C)C(=O)N[C@@H]([C@@H](C)CC)C(=O)N(C)CC(=O)N(C)CC(=O)N(C)[C@@H](CC2CCCCC2)C(=O)N(C)CC(=O)N[C@@H](CCc2ccc(C(F)(F)F)c(Cl)c2)C(=O)N2CCC[C@H]2C(=O)NC2(CCCC2)C(=O)N1C [Compound 1815] ([NMeL]I[Sar][Sar][NMeCha][Sar][hPhe(3-Cl-4-CF3)]P[Ac5c][NMeNle][NMeD]-Piperidide; lactam N-11)	< 6.30
